The record followed here is patent publication US20100095387A1, “METHODS AND REAGENTS FOR SCREENING NEW DRUGS AND FOR TREATING ION PUMP ASSOCIATED DISORDERS AND DISEASES” (priority 2005, published 2010).

The test system of assay [1] is layer V neurons in acute cortical slices. Description: Whole cell current clamp of layer V neurons in acute cortical slices. The format is cell-based, mouse.
A further assay deals with α3Na+/K+-ATPase (Mus musculus, UniProt Q6PIC6). Description: Na+ imaging (SBFI-AM) of cultured cortical cells. The format is cell-based. The settings on record: fragment or ouabain alone; neurons.

`C=C(C)[C@H]1CN[C@H](C(=O)O)[C@H]1CC(=O)O` [kainic acid, reference compound]: in assay [1], the action potential frequency amounted to 0.6±0.2 Hz and the membrane potential is −56.2±1.3 mV.
Regarding `C[C@@H]1O[C@@H](O[C@H]2C[C@@H](O)[C@]3(CO)[C@H]4[C@H](O)C[C@]5(C)[C@@H](C6=CC(=O)OC6)CC[C@]5(O)[C@@H]4CC[C@]3(O)C2)[C@H](O)[C@H](O)[C@H]1O` [ouabain, reference compound], the “neuronal intracellular Na+” value on α3Na+/K+-ATPase is listed as “increase”.
